Data taken from patent US20250163016A1, “PYRIDINE DERIVATIVE, PREPARATION METHOD THEREFOR AND USE THEREOF” (CHENGDU EASTON BIOPHARMACEUTICALS CO., LTD., priority 2022, published 2025).

Tests used:
LSD1 = target: T1, LSD1 (Homo sapiens, UniProt O60341); assay: LSD1 activity test (HTRF); assay type: biochemical; details: H3(1-21)K4 me1-biotin substrate, read-out: IC50, inhibitory activity on LSD1
T1 construct: purchased Active Motif 31432
Description: In this test, a homogeneous time resolved fluorescence (HTRF) technology was utilized, and the inhibitory activity of compounds on LSD1 was detected by adopting a two-step method. The first step was to incubate LSD1, compounds of different concentrations, and a biotin-labeled methylated polypeptide substrate (H3(1-21)K4 me1-biotin) at the room temperature for fixed time.
A corresponding solution with a 1000-fold final concentration was formed by dilution in a 384-well Source plate, and then Echo550 was used for transferring 10 nL to a 384-well reaction plate for being tested.
An inhibition percentage was calculated using a maximum value, a minimum value, and a signal value (maximum value: fluorescence intensity of 5 μL of 2× enzyme solution+5 μL of 2× substrate mixed solution+10 nL of 100% DMSO+10 μL of detection solution; minimum value: fluorescence intensity of 5 μL of 1× reaction solution+5 μL of 2× substrate mixed solution+10 nL of 100% DMSO+10 μL of detection solution; and signal value: fluorescence intensity of 5 μL of 2× enzyme solution+5 μL of 2× substrate mixed solution+10 nL of diluted compound to be tested+10 μL of detection solution), and a calculation formula was as follows: […]
Using a logarithm of the concentration as an X axis and the percentage inhibition rate as a Y axis, a dose-response curve was fitted using a formula log(inhibitor) vs. response-Variable slope (Four parameters) of analysis software Graphpad Prism 5 to obtain the IC50 value of each compound on the enzyme activity.

[1] = Pharmacokinetics of oral administration of rats; assay type: in vivo; details: male, rat, SD rats, p.o. 5.0 mg/kg, plasma
Description: With SD rats as tested animals, blood drug concentrations in plasma at different moments after oral administration of the compounds of the present application by the rats in a clarification kit mode were determined using an LC-MS/MS method. Pharmacokinetic parameters of the compounds of the present application in the rats were obtained, and pharmacokinetic characteristics of the compounds were studied.
• SD rats, male, weight 180-220 g, 3 rats per group. The animals were fed in an animal house after being purchased, an adaptation period was at least 3 days, and they were used for tests after passing quarantine.
According to Table 4, each group of rats was given the corresponding tested drugs or positive drugs by gavage, before administration, and 15 min, 30 min, 1 h, 2 h, 4 h, 6 h, 8 h, and 24 h after administration, a fixed volume of blood was collected through eye sockets and placed in an EDTA-K2 anticoagulant tube, centrifuging was carried out at 8000 rpm for 1 min to separate plasma into a centrifuge tube, and the plasma was frozen in a −20° C. refrigerator.
The plasma at each time point stored at −20° C. was taken out, then acetonitrile was added, after whirling at 1500 revolutions for 2 min, centrifuging was carried out for 15 min (3500 r/min), and a fixed volume of solution supernatant was taken for LC-MS/MS analysis.
Non-compartment model fitting was carried out on pharmacokinetic behaviors of the tested compounds, and DAS3.31 software was adopted to calculate main pharmacokinetic parameters (T1/2, Tmax, Cmax, AUClast, etc.).

Row | Compound | IC50 (LSD1) [nM] | AUC(0-t) [1] [ng·h/mL] | Cmax [1] [ng/mL] | Tmax [1] [h] | half-life [1] [h]
1 | COc1ccc(-c2c(C#N)cc(N3CCC(N)CC3)nc2-c2ccc(C#N)c(F)c2)cc1F [Compound 1, 6-(4-aminopiperid-1-yl)-2-(4-cyano-3-fluorophenyl)-3-(3-fluoro-4-methoxyphenyl)isonicotinonitrile] | 2.1 | 1300 ± 411 | 93.9 ± 19.1 | 6 | 7.64 ± 2.46
2 | Cn1ncc2cc(-c3c(-c4ccc(C#N)c(F)c4)nc(N4CCC(N)CC4)c4c3CNC4=O)ccc21 [Compound 8, 4-(4-(4-aminopiperid-1-yl)-7-(1-methyl-1H-indazol-5-yl)-3-oxo-2,3-dihydro-1H-pyrrole[3,4-c]pyrid-6-yl)-2-fluorobenzonitrile] | 6.5 | – | – | – | –
3 | CC(C)(O)Cn1ncc2cc(-c3c(-c4ccc(C#N)c(F)c4)nc(N4CCC(N)CC4)c4c3CNC4=O)c(F)cc21 [Compound 9, 4-(4-(4-aminopiperid-1-yl)-7-(6-fluoro-1-(2-hydroxyl-2-methylpropyl)-1H-indazol-5-yl)-3-oxo-2,3-dihydro-1H-pyrrole[3,4-c]pyrid-6-yl)-2-fluorobenzonitrile] | 0.72 | – | – | – | –
4 | Cn1ncc2cc(-c3c(C(N)=O)cc(N4CCC(N)CC4)nc3-c3ccc(C#N)c(F)c3)ccc21 [Compound 10, 6-(4-aminopiperid-1-yl)-2-(4-cyano-3-fluorophenyl)-3-(1-methyl-1H-indazol-5-yl)isonicotinamide] | 0.81 | – | – | – | –
5 | Cn1ncc2cc(-c3cc(C#N)c(N4CCC(N)CC4)nc3-c3ccc(C#N)c(F)c3)ccc21 [Compound 12, 2-(4-aminopiperid-1-yl)-6-(4-cyano-3-fluorophenyl)-5-(1-methyl-1H-indazol-5-yl)nicotinonitrile] | 4.4 | – | – | – | –
6 | CC(C)(O)Cn1ncc2cc(-c3c(C(N)=O)cc(N4CCC(N)CC4)nc3-c3ccc(C#N)c(F)c3)c(F)cc21 [Compound 17, 6-(4-aminopiperid-1-yl)-2-(4-cyano-3-fluorophenyl)-3-(6-fluoro-1-(2-hydroxyl-2-methylpropyl)-1H-indazol-5-yl)isonicotinamide] | 1.2 | – | – | – | –
7 | CC(C)(O)Cc1ccc(-c2c(C#N)cc(N3CCC(N)CC3)nc2-c2ccc(C#N)c(F)c2)c(F)c1 [Compound 19, 6-(4-aminopiperid-1-yl)-2-(4-cyano-3-fluorophenyl)-3-(2-fluoro-4-(2-hydroxyl-2-methylpropyl)phenyl)isonicotinonitrile] | 3.1 | – | – | – | –
8 | Cn1ncc2cc(-c3cc(C(=O)NC4CC4)c(N4CCCNCC4)nc3-c3ccc(C#N)c(F)c3)ccc21 [Compound 28] | 2.3 | – | – | – | –
9 | Cc1noc2cc(-c3c(C#N)cc(N4CCC(N)CC4)nc3-c3ccc(C#N)c(F)c3)c(F)cc12 [Compound 33, 6-(4-aminopiperid-1-yl)-2-(4-cyano-3-fluorophenyl)-3-(5-fluoro-3-tolueno[d]isoxazol-6-yl)isonicotinonitrile] | 0.34 | – | – | – | –

Further compounds by falling IC50 (LSD1), results first:

Row | IC50 (LSD1) [nM] | AUC(0-t) [1] [ng·h/mL] | Cmax [1] [ng/mL] | Tmax [1] [h] | half-life [1] [h] | Compound
10 | 8.9 | 1470 ± 44.6 | 130 ± 7.9 | 4.67 ± 2.31 | 5.97 ± 0.29 | COc1ccc(-c2c(C#N)cc(C3CCC(N)CC3)nc2-c2ccc(C#N)c(F)c2)cc1F (stereo not shown) [Compound 14, 6-(4-aminocyclohexyl)-2-(4-cyano-3-fluorophenyl)-3-(3-fluoro-4-methoxyphenyl)isonicotinonitrile]
11 | 6.2 | – | – | – | – | COc1ccc(-c2c(C#N)cc(N3CCC4(CC3)CNC4)nc2-c2ccc(C#N)c(F)c2)cc1F [Compound 22, 2-(4-cyano-3-fluorophenyl)-3-(3-fluoro-4-methoxyphenyl)-6-(2,7-diazaspiro[3.5]non-7-yl)isonicotinonitrile]
12 | 5.8 | – | – | – | – | COc1ccc(-c2c(-c3ccc(C#N)c(F)c3)nc(N3CCC(N)CC3)c3c2CNC3=O)cc1F [Compound 3, 4-(4-(4-aminopiperid-1-yl)-7-(3-fluoro-4-methoxyphenyl)-3-oxo-2,3-dihydro-1H-pyrrole[3,4-c]pyrid-6-yl)-2-fluorobenzonitrile]
13 | 4.8 | – | – | – | – | COc1ccc(-c2c(C(N)=O)cc(N3CCC(N)CC3)nc2-c2ccc(C#N)c(F)c2)cc1F [Compound 2, 6-(4-aminopiperid-1-yl)-2-(4-cyano-3-fluorophenyl)-3-(3-fluoro-4-methoxyphenyl)isonicotinamide]
14 | 3.4 | – | – | – | – | COc1ccc(-c2c(C#N)cc(N3CCC4(CCNC4)CC3)nc2-c2ccc(C#N)c(F)c2)cc1F [Compound 29, 2-(4-cyano-3-fluorophenyl)-3-(3-fluoro-4-methoxyphenyl)-6-(2,8-diazaspiro[4.5]dec-8-yl)isonicotinonitrile]
15 | 3.3 | – | – | – | – | CN(C)C(=O)c1cc(-c2ccc3c(cnn3C)c2)c(-c2ccc(C#N)c(F)c2)nc1N1CCCNCC1 [Compound 27, 6-(4-cyano-3-fluorophenyl)-2-(1,4-diazaniline-1-yl)-N,N-dimethyl-5-(1-methyl-1H-indazol-5-yl)nicotinamide]
16 | 2.9 | – | – | – | – | Cn1ncc2cc(-c3cc(C(N)=O)c(N4CCCNCC4)nc3-c3ccc(C#N)c(F)c3)ccc21 [Compound 26, 6-(4-cyano-3-fluorophenyl)-2-(1,4-diaza-1-yl)-5-(1-methyl-1H-indazol-5-yl)nicotinamide]
17 | 2.2 | – | – | – | – | CC(C)(O)C(F)(F)c1ccc(-c2c(C#N)cc(N3CCC(N)CC3)nc2-c2ccc(C#N)c(F)c2)c(F)c1 [Compound 35, 6-(4-aminopiperid-1-yl)-2-(4-cyano-3-fluorophenyl)-3-(4-(1,1-difluoro-2-hydroxyl-2-methylpropyl)-2-fluorophenyl)isonicotinonitrile]
18 | 2 | 1550 ± 252 | 125 ± 25.8 | 6 | 5.73 ± 0.8 | COc1ccc(-c2c(C#N)cc(N3CCCNCC3)nc2-c2ccc(C#N)c(F)c2)cc1F [Compound 15, 2-(4-cyano-3-fluorophenyl)-6-(1,4-diazacyclohepta-1-yl)-3-(3-fluoro-4-methoxyphenyl)isonicotinonitrile]
19 | 1.5 | – | – | – | – | Cn1ncc2cc(-c3cc(C(N)=O)c(N4CCC(N)CC4)nc3-c3ccc(C#N)c(F)c3)ccc21 [Compound 11, 2-(4-aminopiperid-1-yl)-6-(4-cyano-3-fluorophenyl)-5-(1-methyl-1H-indazol-5-yl)nicotinamide]
20 | 1.5 | – | – | – | – | CN1C(=O)C(F)(F)c2cc(-c3c(C#N)cc(N4CCC(N)CC4)nc3-c3ccc(C#N)c(F)c3)ccc21 [Compound 34, 6-(4-aminopiperid-1-yl)-2-(4-cyano-3-fluorophenyl)-3-(3,3-difluoro-1-methyl-2-oxoindol-5-yl)isonicotinonitrile]
21 | 1.4 | 1410 ± 293 | 126 ± 23.9 | 4.67 ± 1.15 | 4.66 ± 0.73 | Cn1ncc2cc(-c3c(C#N)cc(N4CCCNCC4)nc3-c3ccc(C#N)c(F)c3)ccc21 [Compound 20, 2-(4-cyano-3-fluorophenyl)-6-(1,4-diazaniline-1-yl)-3-(1-methyl-1H-indazol-5-yl)isonicotinonitrile]
